One experiment deals with primary mouse B cells. In words: B-cell response experiment (CD86 after anti-IgM). Conditions: 24 h treatment, 1–1000 nM. Type of experiment: cell-based. As to the method: Splenic cells from C57BL/6 mice were isolated by forcing spleen tissue through the mesh into PBS containing 2% fetal calf serum and 1 mM EDTA, and red blood cells were depleted by lysis buffer. […] Following a 24 h incubation, cells were stimulated with anti-IgM overnight (5 μg/mL, Sigma-Aldrich). […] Single-cell suspensions were analyzed by a flow cytometer (CytoFlex, Beckman Coulter).

For experiment [1], the target named is T1, BTK (Homo sapiens, UniProt Q06187). In words: In-gel fluorescence labeling profile in Mino cells. Conditions: 2 h incubation, in-gel fluorescence.
T1 sequence (Q06187 whole entry, the tested form may be a part): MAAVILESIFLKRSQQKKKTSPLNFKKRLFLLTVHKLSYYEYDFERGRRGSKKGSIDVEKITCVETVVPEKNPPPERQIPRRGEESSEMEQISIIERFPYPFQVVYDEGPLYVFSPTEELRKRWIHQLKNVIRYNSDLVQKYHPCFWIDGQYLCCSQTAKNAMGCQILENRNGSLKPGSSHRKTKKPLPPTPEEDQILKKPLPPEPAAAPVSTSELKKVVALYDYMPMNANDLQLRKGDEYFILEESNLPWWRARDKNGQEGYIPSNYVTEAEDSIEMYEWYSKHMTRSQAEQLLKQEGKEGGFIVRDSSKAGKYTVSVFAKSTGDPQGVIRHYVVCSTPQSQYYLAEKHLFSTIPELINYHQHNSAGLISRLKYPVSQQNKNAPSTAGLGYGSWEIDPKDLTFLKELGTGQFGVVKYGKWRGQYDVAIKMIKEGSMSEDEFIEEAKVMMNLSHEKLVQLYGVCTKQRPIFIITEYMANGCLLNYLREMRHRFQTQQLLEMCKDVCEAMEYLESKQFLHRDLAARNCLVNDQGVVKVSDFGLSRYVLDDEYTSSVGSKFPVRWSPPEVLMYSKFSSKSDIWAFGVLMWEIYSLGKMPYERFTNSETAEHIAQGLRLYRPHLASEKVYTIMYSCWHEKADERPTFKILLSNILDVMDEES
Procedure: Lysates were then diluted to 2 mg/mL in PBS. […] The samples were incubated at 25 °C for 2 h. A 20 μL amount of 4× LDS sample buffer (NuPAGE, Thermo Fisher Scientific, NP0007) was added followed by a 10 min incubation at 70 °C.
The 1× chloroform, 4× methanol, and 3× water were added to the samples and vortexed thoroughly. The samples were spun down for 10 min at 4 °C. The top layer was aspirated, and the pellet was resuspended in 4× methanol. The sample was vortexed and spun down again for 10 min at 4 °C, the solution was removed, and the pellet was dried for 2 min. The pellet was dissolved in 42 μL of PBS followed by 14 μL of 4× sample buffer. The samples were then loaded on a 4–20% Bis-Tris gel (SurePAGE, GeneScript) and imaged using a Typhoon FLA 9500 scanner.
The target of the next experiment is BTK kinase domain (Homo sapiens, UniProt Q06187). In words: MS/MS site-of-labeling analysis of BTK tryptic peptides. Type of experiment: binding. The arrangement: BTK kinase domain was expressed and purified as previously reported; made in house. As to the method: 100 μl of 5 μM Recombinant BTK kinase domain was incubated in 20 mM Tris with 50 μM of 1b or DMSO. The compounds were then removed by methanol-chloroform (400 μL MeOH+100 μL CHCl3+300 μL H2O) precipitation of the protein. The dry pellet was dissolved in 50 μl of 50 mM Tris pH 8 + 5% SDS and heated to 95 °C for 6 min. The concentration of the protein was estimated using BCA assay (using BSA as the standard). 2 μg each sample were diluted to 15 μl with Tris 50 mM pH 8 + 5% SDS, reduced with DTT (0.75 μl of 0.1 M in 5% SDS/Tris 50 mM pH 8, 45 min 65 °C), cooled to room temperature, then alkylated with 0.75 μl of 0.2 M iodoacetamide in water (30 min room temperature in the dark). The protein was then isolated and trypsinized on s-traps (Protifi) according to the manufacturer's instructions. Triplicates were prepared for each […]
BTK kinase domain, sequence (Q06187 402-655 limits assumed): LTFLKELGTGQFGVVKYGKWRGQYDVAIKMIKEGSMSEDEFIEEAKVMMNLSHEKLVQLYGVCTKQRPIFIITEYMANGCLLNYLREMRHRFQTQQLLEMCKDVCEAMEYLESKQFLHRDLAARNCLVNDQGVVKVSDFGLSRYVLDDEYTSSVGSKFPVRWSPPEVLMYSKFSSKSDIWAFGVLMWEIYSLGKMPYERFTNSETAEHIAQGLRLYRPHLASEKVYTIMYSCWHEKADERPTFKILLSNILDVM
ULC/MS grade solvents were used for all chromatographic steps. Each sample was loaded using split-less nano-Ultra Performance Liquid Chromatography (10 kpsi nanoAcquity; Waters, Milford, MA, USA). The mobile phase was: A) H2O + 0.1% formic acid and B) acetonitrile + 0.1% formic acid. Desalting of the samples was performed online using a reversed-phase Symmetry C18 trapping column (180 µm internal diameter, 20 mm length, 5 µm particle size; Waters). The peptides were then separated using a T3 HSS nano-column (75 µm internal diameter, 250 mm length, 1.8 µm particle size; Waters) at 0.35 µL/min. Peptides were eluted from the column into the mass spectrometer using the following gradient: 4% to 30%B in 155 min, 35% to 90%B in 5 min, maintained at 90% for 5 min and then back to initial conditions.
The nanoUPLC was coupled online through a nanoESI emitter (10 μm tip; New Objective; Woburn, MA, USA) to a quadrupole orbitrap mass spectrometer (Q Exactive HFX, Thermo Scientific) using a FlexIon nanospray apparatus (Proxeon).
Data was acquired in data dependent acquisition (DDA) mode, using a Top10 method. MS1 […]
maximum injection time was set to 60msec. MS2 resolution was set to 15,000, quadrupole isolation 1.7 m/z, AGC of 1e5, dynamic exclusion of 45 sec and maximum injection time of 60 […]
Analysis was done using MaxQuant 1.6.3.4. The sequence of BTK was used for the analysis. The digestion enzyme was set to Trypsin with a maximum number of missed cleavages of 0.
Carbamidomethyl and the modification by the molecule were included as variable modifications on cysteine. The “Re-quantify” option was enabled. Contaminants were included. Peptides were searched with a minimum peptide length of 7 and a maximum peptide mass of 4,500 Da. “Second peptides” were enabled and “Dependent peptides” were disabled. The option “Match between runs” was enabled with a Match time window of 0.7 min and an alignment window of 20 min. An FDR of 0.01 was used for Protein FDR, PSM FDR and XPSM FDR. The triplicate measured for each compound (or for DMSO-treated protein) was analyzed separately.
Following MaxQuant analysis, only fully cleaved peptides were quantified and cysteine-containing peptides that were not modified by either iodoacetamide or compound were ignored.
The intensity for each peptide was calculated as the average of the three triplicates. If the intensity was zero for one of the replicates the peptide was ignored. The intensities for the non-cysteine containing peptides were averaged for each data set and used to normalize the intensity of cysteine-containing peptides. Estimation of the extent of labeling of cysteine-containing peptides in the sequence was done by comparing the intensity of carbamidomethyl-modified peptides between the DMSO and molecule-treated samples. MS/MS spectra for the carbamidomethyl-modified and molecule modified peptides were extracted using Skyline. […]
The obtained

In experiment [2] the target is T1, BTK. In words: BTK activity in Mino cells (autophosphorylation). Type of experiment: cell-based. On the set-up: We incubated Mino B cells with probes containing different tags; endogenous in cells; host or cells: Mino cells. To be noted: Mino cells, 1 h; 100 nM probes, 1 μM ibrutinib or Ibr-H. The method, then: The cells were harvested, and immunoblots of phospho-BTK, total-BTK, and β-actin were performed.
Cell pellets were washed with ice-cold PBS and lysed using RIPA buffer (Sigma, R0278). […] Samples containing 50 μg of total protein were prepared with 4× LDS sample buffer (NuPAGE, Thermo Fischer Scientific, NP0007) and were then resolved on a 4–20% Bis-Tris gel (GeneScript SurePAGE, M00657). […] The EZ-ECL kit (Biological Industries, 20-500-1000) was used to detect HRP activity.

For the molecule `C#CCCNC(=O)C(=C)CN1CCC[C@@H](n2nc(-c3ccc(Oc4ccccc4)cc3)c3c(N)ncnc32)C1` [1b], the “B cell activation (CD86 expression) after anti-IgM” value in the experiment on primary mouse B cells was “did not inhibit the activation of B cells”. Moreover, the “labeling of BTK in live Mino cells” value at BTK [1] is given as “robust labeling even at a concentration of 10 nM”. In addition, the “site of modification on BTK” value on BTK kinase domain (LC/MS/MS of tryptic peptides) is listed as “Cys481”. Further, the “1b/DMSO ratio after correction” value at BTK kinase domain (iodoacetamide labeled peptide 457-466 LVQLYGVCTK) came out at 0.891; at BTK kinase domain (iodoacetamide labeled peptide 467-487 QRPIFIITEYMANGCLLNYLR) it was 0.092; on BTK kinase domain (iodoacetamide labeled peptide 493-503 FQTQQLLEMCK), 0.469; on BTK kinase domain (iodoacetamide labeled peptide 504-515 DVCEAMEYLESK), 0.413; at BTK kinase domain (iodoacetamide labeled peptide 526-536 NCLVNDQGVVK), 0.724; on BTK kinase domain (iodoacetamide labeled peptide 626-637 VYTIMYSCWHEK) it was 0.735. Also, the “BTK autophosphorylation after anti-IgM” value at BTK [2] was “BTK remained active after labeling”.
